Results taken from US20190252037A1 (priority 2016, published 2019).

Assays:
[1] = tested on: bat FluA polymerase; type: binding
[2] = target: FluB polymerase; type: binding, human influenza B/Memphis/13/03
[3] = target: bat FluA polymerase-vRNA promoter complex; type: binding

With “Pol II CTD peptide, four heptad repeats Tyr-Ser-Pro-Thr-SerP-Pro-Ser (28 amino acids), FAM-labelled at the N-terminal end for binding assays (Covalab) [28-mer SeP5 peptide]” the “binding in the absence of the vRNA promotor” value [1] was “independent of vRNA promoter binding”, the Kd [2] was 2900 nM and the Kd [3] was 900 nM. For the same substance, the “higher affinity for Ser5 phosphorylated compared to non-phosphorylated CTD repeats” value [3] was over 10 fold.
